Drawing on ChEMBL document CHEMBL1201862, “PubChem BioAssay data set” (2004), this text covers EC50, IC50 and AC50 for four compounds.

SMILES strings stand for the structures. Calls of active or inactive are those of the source.

The term EC50 denotes the concentration at which the effect is half-maximal. The IC50 is the concentration at which inhibition is half-maximal. In general, AC50 refers to the midpoint of the concentration-response curve, whichever way the signal moves.

For one test, the target named is T1, Streptokinase A (Streptococcus pyogenes serotype M1, UniProt P10520).
T1 sequence (P10520 whole entry): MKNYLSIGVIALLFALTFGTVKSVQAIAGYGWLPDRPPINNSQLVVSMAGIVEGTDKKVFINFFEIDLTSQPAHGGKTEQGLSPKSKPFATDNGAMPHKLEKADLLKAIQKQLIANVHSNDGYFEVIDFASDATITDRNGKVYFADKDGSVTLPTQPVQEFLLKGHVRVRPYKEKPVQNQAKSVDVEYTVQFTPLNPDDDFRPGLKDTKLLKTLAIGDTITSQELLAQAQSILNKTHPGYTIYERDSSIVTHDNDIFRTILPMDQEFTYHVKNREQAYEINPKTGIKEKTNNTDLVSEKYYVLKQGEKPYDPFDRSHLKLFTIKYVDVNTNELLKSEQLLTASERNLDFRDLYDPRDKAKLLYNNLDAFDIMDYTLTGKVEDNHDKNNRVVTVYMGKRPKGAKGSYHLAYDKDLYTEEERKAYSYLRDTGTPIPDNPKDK
The test can be described thus: viability-normalized secreted streptokinase activity reduction – plasminogen activation absorbance, OD405, dose response (AID 1914).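 Also: secreted streptokinase activity via plasminogen activation per viability signal from cell pellet.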 In kind it is functional, Streptococcus pyogenes M1 GAS.

A further test deals with Streptococcus. In words: GAS UMAA2166 growth inhibition – luminescence, BacTiterGlo, counter-screen for streptokinase expression inhibitor project, dose response (AID 1915).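 Also: potency for reduction of bacterial viability or growth.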 In kind it is functional, organism-based.
Test [1] addresses T2, Calpain-2 catalytic subunit (Sus scrofa, UniProt P43367).
T2 sequence (P43367 whole entry): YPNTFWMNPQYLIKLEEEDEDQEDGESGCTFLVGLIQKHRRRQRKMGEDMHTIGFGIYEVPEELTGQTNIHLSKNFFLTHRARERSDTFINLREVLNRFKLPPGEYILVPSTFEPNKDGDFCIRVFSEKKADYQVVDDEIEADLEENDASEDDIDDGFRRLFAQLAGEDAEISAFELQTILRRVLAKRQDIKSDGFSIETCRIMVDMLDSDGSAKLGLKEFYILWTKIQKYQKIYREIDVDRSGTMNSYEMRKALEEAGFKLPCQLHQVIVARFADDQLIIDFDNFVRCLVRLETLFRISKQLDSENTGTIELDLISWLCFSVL
The test can be described thus: m-calpain protease blockers, concentration series – biochemical, fluorogenic peptide substrate, dose response (AID 1420). The class given is functional.

A further test addresses T3, Caspase-3 (Homo sapiens, UniProt P42574).
T3 sequence (P42574 whole entry): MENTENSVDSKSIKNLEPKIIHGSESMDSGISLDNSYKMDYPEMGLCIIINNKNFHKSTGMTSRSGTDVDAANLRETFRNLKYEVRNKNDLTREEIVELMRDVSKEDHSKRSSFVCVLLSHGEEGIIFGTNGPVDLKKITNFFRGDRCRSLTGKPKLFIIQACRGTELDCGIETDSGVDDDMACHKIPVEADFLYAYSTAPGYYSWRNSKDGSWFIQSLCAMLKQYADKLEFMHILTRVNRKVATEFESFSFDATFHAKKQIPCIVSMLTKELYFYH
In words: SAR Analysis of small molecule inhibitors of Sentrin-specific proteases (SENPs) using a Caspase-3 Selectivity assay. [Related pubchem assays (depositor defined):AID2540, AID2599, AID434973, AID489001]. In kind it is functional.

Test [2] can be described thus: Luminescence-based dose response cell-based high throughput screening assay for cytotoxic compounds using the IEC-6 intestinal epithelial cell line. [Related pubchem assays: 1858 (Summary AID.), 1825 (Counterscreen.), 1907 (Confirmation screen.)]. The class given is functional.
Another test deals with INS1. In words: INS-1E survival protection against cytokine death – cell-based, luminescence, retest, dose response (AID 449756).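 Also: cell death triggered by IL-1 beta plus TNF-alpha plus IFN-gamma mixture; protective hits raise ATP signal compared with cytokine alone wells.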 Particulars: Rattus norvegicus. In kind it is functional.
In the next test the target is Nonstructural protein 1 (Influenza A virus, UniProt Q194T2). The class given is functional, Influenza A virus (A/California/07/2009(H1N1)).
Chain of Nonstructural protein 1 (Q194T2 whole entry): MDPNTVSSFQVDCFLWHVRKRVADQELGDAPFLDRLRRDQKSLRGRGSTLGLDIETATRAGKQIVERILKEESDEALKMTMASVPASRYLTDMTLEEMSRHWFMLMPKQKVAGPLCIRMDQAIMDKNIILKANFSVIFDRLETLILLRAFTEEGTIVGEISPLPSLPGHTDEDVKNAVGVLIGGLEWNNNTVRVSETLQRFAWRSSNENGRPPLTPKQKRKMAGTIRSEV
The nature of test [3]: general cell-killing toxicity readout – plate reader, dry powder samples, cytotoxicity control for PAX8 inhibitor project, dose response (AID 743021). The class given is functional, cell-based.
Test [4] addresses T4, Histone-lysine N-methyltransferase NSD2 (Homo sapiens, UniProt O96028).
T4 sequence (O96028 whole entry): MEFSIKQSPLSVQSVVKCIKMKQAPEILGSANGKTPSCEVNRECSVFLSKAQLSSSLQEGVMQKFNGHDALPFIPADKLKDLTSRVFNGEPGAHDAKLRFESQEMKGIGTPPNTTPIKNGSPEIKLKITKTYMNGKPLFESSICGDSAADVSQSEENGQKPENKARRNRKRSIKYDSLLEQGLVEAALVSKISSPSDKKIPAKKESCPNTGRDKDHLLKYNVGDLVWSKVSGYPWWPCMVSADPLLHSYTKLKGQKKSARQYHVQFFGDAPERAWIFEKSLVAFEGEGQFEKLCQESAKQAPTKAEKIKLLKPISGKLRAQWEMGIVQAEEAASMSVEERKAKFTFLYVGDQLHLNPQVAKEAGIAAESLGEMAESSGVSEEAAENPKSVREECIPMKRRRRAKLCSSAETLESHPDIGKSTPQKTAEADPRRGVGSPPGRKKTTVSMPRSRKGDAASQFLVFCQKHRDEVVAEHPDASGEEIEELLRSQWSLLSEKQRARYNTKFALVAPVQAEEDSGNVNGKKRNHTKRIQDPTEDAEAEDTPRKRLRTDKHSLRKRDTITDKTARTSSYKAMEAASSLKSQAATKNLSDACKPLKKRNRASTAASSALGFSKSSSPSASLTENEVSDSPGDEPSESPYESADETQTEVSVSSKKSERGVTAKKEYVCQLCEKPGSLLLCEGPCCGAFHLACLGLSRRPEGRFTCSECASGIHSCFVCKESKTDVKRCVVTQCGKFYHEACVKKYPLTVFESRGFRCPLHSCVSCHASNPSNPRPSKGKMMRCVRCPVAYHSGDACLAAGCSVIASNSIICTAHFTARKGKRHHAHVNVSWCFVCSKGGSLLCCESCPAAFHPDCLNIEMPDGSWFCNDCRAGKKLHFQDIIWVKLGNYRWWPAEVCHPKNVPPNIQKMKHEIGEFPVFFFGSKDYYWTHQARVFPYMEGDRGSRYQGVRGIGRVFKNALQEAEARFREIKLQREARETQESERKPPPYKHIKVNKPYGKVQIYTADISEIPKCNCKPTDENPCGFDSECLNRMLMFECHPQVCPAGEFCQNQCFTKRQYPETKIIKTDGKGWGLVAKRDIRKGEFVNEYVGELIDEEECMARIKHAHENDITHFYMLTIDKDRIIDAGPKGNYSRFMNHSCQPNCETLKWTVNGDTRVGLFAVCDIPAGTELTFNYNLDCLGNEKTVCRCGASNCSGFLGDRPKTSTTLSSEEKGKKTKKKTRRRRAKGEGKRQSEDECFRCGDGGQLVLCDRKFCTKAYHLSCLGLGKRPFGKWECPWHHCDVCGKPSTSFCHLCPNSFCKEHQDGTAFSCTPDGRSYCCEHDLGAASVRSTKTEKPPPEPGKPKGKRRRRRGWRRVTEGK
In kind it is biochemical.

The next test addresses SUMO-activating enzyme (Homo sapiens, UniProt Q9UBT2). The test can be described thus: blockers of UBC9-mediated SUMO conjugation – biochemical, AlphaScreen, SUMOylation inhibitor project, confirmation (AID 2018). In kind it is functional. Background: Bead proximity is the source of the signal in Alpha formats.

Chain of SUMO-activating enzyme (Q9UBE0 whole entry): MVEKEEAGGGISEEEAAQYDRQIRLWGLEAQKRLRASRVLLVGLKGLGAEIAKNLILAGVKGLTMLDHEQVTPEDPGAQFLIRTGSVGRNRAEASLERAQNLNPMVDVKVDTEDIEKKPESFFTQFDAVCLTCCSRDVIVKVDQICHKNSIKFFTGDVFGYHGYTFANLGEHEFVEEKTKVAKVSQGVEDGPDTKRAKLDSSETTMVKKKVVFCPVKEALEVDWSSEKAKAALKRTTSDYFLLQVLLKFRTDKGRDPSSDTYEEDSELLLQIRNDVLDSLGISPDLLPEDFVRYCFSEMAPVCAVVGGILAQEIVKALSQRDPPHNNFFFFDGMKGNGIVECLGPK
Chain of SUMO-activating enzyme (Q9UBT2 whole entry): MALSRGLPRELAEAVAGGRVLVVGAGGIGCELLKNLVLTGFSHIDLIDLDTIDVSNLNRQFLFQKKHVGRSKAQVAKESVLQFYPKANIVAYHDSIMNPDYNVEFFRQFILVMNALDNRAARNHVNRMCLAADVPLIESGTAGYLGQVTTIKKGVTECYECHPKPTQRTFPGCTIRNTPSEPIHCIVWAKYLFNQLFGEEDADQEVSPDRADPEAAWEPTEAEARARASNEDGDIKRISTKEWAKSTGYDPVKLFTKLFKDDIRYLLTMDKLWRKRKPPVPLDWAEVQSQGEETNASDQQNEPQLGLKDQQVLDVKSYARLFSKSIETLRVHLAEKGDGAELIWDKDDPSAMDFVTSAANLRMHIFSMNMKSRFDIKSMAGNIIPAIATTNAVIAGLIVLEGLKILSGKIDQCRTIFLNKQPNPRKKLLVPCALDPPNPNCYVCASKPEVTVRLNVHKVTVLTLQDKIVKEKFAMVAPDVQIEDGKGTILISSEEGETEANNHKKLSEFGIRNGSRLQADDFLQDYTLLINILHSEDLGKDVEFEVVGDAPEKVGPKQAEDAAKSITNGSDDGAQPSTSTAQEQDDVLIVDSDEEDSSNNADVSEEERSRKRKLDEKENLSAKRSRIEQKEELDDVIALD

For the compound `Cc1cccc(C)c1-n1cccc1/C=C1\SC(=S)N(c2cccc(C(=O)O)c2)C1=O`, the figures for the EC50 at Streptokinase A and in the test on Streptococcus were 3.8 µM (active) and 8.78 µM (active), respectively. Also, the IC50 in test [1] was 7.27 µM (not active).

For the compound `Oc1ccc(/C=N/Nc2cc(N3CCCC3)nc(N3CCCC3)n2)cc1`, at Caspase-3, the IC50 is > 99 µM (inactive).

With `COc1ccc(S(=O)(=O)/N=C2\C=C(Nc3ccc(O)cc3)C(=O)c3ccccc32)cc1`, the IC50 was 586 nM (active) in test [2] and 8.09 µM (active) at Nonstructural protein 1. Besides, the half-maximal activity concentration (AC50) in the test with INS1 was 592 nM (active); in [3], 7.4 µM (active).

`COc1ccc(/C=N/Nc2cc(N3CCCC3)nc(N3CCCC3)n2)cc1`: the AC50 in test [4] is 2.01 µM (active). Moreover, on SUMO-activating enzyme, the half-maximal inhibitory concentration (IC50) was 680 nM (active).
